Results from patent US6737383B1, “Herbicidal oxadiazolidines” (priority 1999, dated 2004).

Key:
rape = test: Test B pre/postemergence rape; assay type: in vivo, Brassica napus
Procedure, shortened: (§1)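 Test chemicals in a non-phytotoxic solvent mixture with surfactant were sprayed preemergence onto planted seeds and postemergence onto plants 2 to 18 cm tall (1- to 4-leaf stage). After twelve to sixteen days in a greenhouse, injury was visually rated against untreated controls from 0 (no effect) to 10 (complete control).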

blackgrass = test: Test B pre/postemergence blackgrass; assay type: in vivo, Alopecurus myosuroides
Procedure, shortened: as §1

bedstraw = test: Test B pre/postemergence bedstraw; assay type: in vivo, Galium aparine; settings: Postemergence
Procedure, shortened: as §1

velvetleaf = test: Test B pre/postemergence velvetleaf; assay type: in vivo, Abutilon theophrasti
Procedure, shortened: as §1

crabgrass = test: Test B pre/postemergence crabgrass; assay type: in vivo, Digitaria sanguinalis
Procedure, shortened: as §1

giant foxtail = test: Test B pre/postemergence giant foxtail; assay type: in vivo, Setaria faberii
Procedure, shortened: as §1

wheat = test: Test B pre/postemergence wheat; assay type: in vivo, Triticum aestivum
Procedure, shortened: as §1

cocklebur = test: Test B pre/postemergence cocklebur; assay type: in vivo, Xanthium strumarium
Procedure, shortened: as §1

sugar beet = test: Test B pre/postemergence sugar beet; assay type: in vivo, Beta vulgaris
Procedure, shortened: as §1

corn = test: Test B pre/postemergence corn; assay type: in vivo, Zea mays
Procedure, shortened: as §1

surinam grass = test: Test B pre/postemergence surinam grass; assay type: in vivo, Brachiaria decumbens
Procedure, shortened: as §1

wild oat = test: Test B pre/postemergence wild oat; assay type: in vivo, Avena fatua
Procedure, shortened: as §1

pigweed = test: Test B pre/postemergence pigweed; assay type: in vivo, Amaranthus retroflexus
Procedure, shortened: as §1

smallflower flatsedge = test: Test B flood test smallflower flatsedge; assay type: in vivo, Cyperus difformis
Procedure, shortened: (§2)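 Read-out is a visual response score from 0 (no effect) to 10 (complete control), assigned by comparison with untreated controls. Treatment was applied at the 2-leaf stage, and plants stayed in the greenhouse for twelve to sixteen days before scoring.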

bamyardgrass = test: Test B flood test barnyardgrass; assay type: in vivo, Echinochloa crus-galli
Procedure, shortened: as §2

rice = test: Test B flood test rice; assay type: in vivo, Oryza sativa
Procedure, shortened: as §2

duck salad = test: Test B flood test duck salad; assay type: in vivo, Heteranthera limosa
Procedure, shortened: as §2

purple nutsedge = test: Test B pre/postemergence purple nutsedge; assay type: in vivo, Cyperus rotundus
Procedure, shortened: as §1

morningglory = test: Test B pre/postemergence morningglory; assay type: in vivo, Ipomoea hederacea
Procedure, shortened: as §1

soybean = test: Test B pre/postemergence soybean; assay type: in vivo, Glycine max
Procedure, shortened: as §1

[1] = Postemergence, Rate 125 g/ha, scale 0 to 10, 0 is no effect, 10 is complete control
[2] = Postemergence, Rate 500 g/ha, scale 0 to 10, 0 is no effect, 10 is complete control
[3] = Preemergence, Rate 62 g/ha, scale of 0 to 10 where 0 is no effect and 10 is complete control
[4] = Preemergence, Rate 125 g/ha, scale 0 to 10, 0 is no effect, 10 is complete control
[5] = Preemergence, Rate 500 g/ha, scale 0 to 10, 0 is no effect, 10 is complete control
[6] = Rate 62 g/ha, Postemergence, scale 0 to 10 (0 no effect, 10 complete control)
[7] = Postemergence, Rate 250 g/ha, scale 0 to 10
[8] = Preemergence, Rate 250 g/ha, scale 0 to 10, 0 is no effect, 10 is complete control
[9] = Rate 62 g/ha, flood test species, Pre-emergence, visual evaluation after twelve to sixteen days
[10] = Rate 125 g/ha, under heading Pre-emergence, flood test species, visual evaluation after twelve to sixteen days
[11] = Rate 250 g/ha, Pre-emergence (flood test species), scale 0 to 10, 0 is no effect, 10 is complete control
[12] = Rate 500 g/ha, Pre-emergence section of Table B, 0 to 10 scale (0 no effect, 10 complete control)

Compound: CC(C)N(C(=O)n1oc(=O)n(CC(=O)C2CC2)c1=O)c1ccccc1 [Compound 489]
- Rape plant response rating (rape; [1]): 0
- Plant response rating, Rape (rape; [2]): 0
- Plant response rating, Rape (rape; [3]): 0
- Rape plant response rating (rape; [4]): 0
- Rape plant response rating (rape; [5]): 9
- Rape plant response rating (rape; [6]): 0
- Blackgrass plant response rating (blackgrass; [1]): 6
- Blackgrass plant response rating (blackgrass; [7]): 8
- Plant response rating, Blackgrass (blackgrass; [2]): 8
- Plant response rating, Blackgrass (blackgrass; [3]): 7
- Blackgrass plant response rating (blackgrass; [4]): 8
- Blackgrass plant response rating (blackgrass; [8]): 9
- Blackgrass plant response rating (blackgrass; [5]): 10
- Blackgrass plant response rating (blackgrass; [6]): 1
- Bedstraw plant response rating (bedstraw; Rate 125 g/ha, scale 0 to 10, 0 is no effect, 10 is complete control): 3
- Bedstraw plant response rating (bedstraw; Rate 250 g/ha, scale 0 to 10): 5
- Bedstraw plant response rating (bedstraw; Rate 62 g/ha, scale 0 to 10 (0 no effect, 10 complete control)): 0
- Velvetleaf plant response rating (velvetleaf; [1]): 0
- Plant response rating, Velvetleaf (velvetleaf; [2]): 5
- Plant response rating, Velvetleaf (velvetleaf; [3]): 2
- Velvetleaf plant response rating (velvetleaf; [4]): 2
- Velvetleaf plant response rating (velvetleaf; [5]): 7
- Velvetleaf plant response rating (velvetleaf; [6]): 0
- Crabgrass plant response rating (crabgrass; [1]): 5
- Crabgrass plant response rating (crabgrass; [7]): 8
- Plant response rating, Crabgrass (crabgrass; [2]): 9
- Plant response rating, Crabgrass (crabgrass; [3]): 9
- Crabgrass plant response rating (crabgrass; [4]): 10
- Crabgrass plant response rating (crabgrass; [5]): 10
- Crabgrass plant response rating (crabgrass; [6]): 2
- Giant foxtail plant response rating (giant foxtail; [1]): 8
- Plant response rating, Giant foxtail (giant foxtail; [2]): 9
- Plant response rating, Giant foxtail (giant foxtail; [3]): 9
- Giant foxtail plant response rating (giant foxtail; [4]): 10
- Giant foxtail plant response rating (giant foxtail; [5]): 10
- Giant foxtail plant response rating (giant foxtail; [6]): 2
- Wheat plant response rating (wheat; [1]): 0
- Plant response rating, Wheat (wheat; [2]): 2
- Plant response rating, Wheat (wheat; [3]): 0
- Wheat plant response rating (wheat; [4]): 0
- Wheat plant response rating (wheat; [5]): 6
- Wheat plant response rating (wheat; [6]): 0
- Cocklebur plant response rating (cocklebur; [1]): 0
- Cocklebur plant response rating (cocklebur; [7]): 0
- Plant response rating, Cocklebur (cocklebur; [2]): 0
- Plant response rating, Cocklebur (cocklebur; [3]): 0
- Cocklebur plant response rating (cocklebur; [4]): 0
- Cocklebur plant response rating (cocklebur; [8]): 0
- Cocklebur plant response rating (cocklebur; [5]): 0
- Cocklebur plant response rating (cocklebur; [6]): 0
- Sugarbeets plant response rating (sugar beet; [1]): 0
- Plant response rating, Sugarbeets (sugar beet; [2]): 0
- Plant response rating, Sugarbeets (sugar beet; [3]): 0
- Sugarbeets plant response rating (sugar beet; [4]): 2
- Sugarbeets plant response rating (sugar beet; [5]): 5
- Sugarbeets plant response rating (sugar beet; [6]): 0
- Corn plant response rating (corn; [1]): 0
- Corn plant response rating (corn; [7]): 0
- Plant response rating, Corn (corn; [2]): 4
- Plant response rating, Corn (corn; [3]): 0
- Corn plant response rating (corn; [4]): 0
- Corn plant response rating (corn; [5]): 5
- Corn plant response rating (corn; [6]): 0
- B. signalgrass plant response rating (surinam grass; [1]): 2
- B. signalgrass plant response rating (surinam grass; Postemergence, Rate 250 g/ha, scale 0 to 10, 0 no effect, 10 complete control): 6
- Plant response rating, B. signalgrass (surinam grass; [2]): 8
- Plant response rating, B. signalgrass (surinam grass; [3]): 6
- B. signalgrass plant response rating (surinam grass; [4]): 7
- B. signalgrass plant response rating (surinam grass; [8]): 8
- B. signalgrass plant response rating (surinam grass; [5]): 9
- B. signalgrass plant response rating (surinam grass; [6]): 1
- Wild oats plant response rating (wild oat; [1]): 1
- Plant response rating, Wild oats (wild oat; [2]): 3
- Plant response rating, Wild oats (wild oat; [3]): 0
- Wild oats plant response rating (wild oat; [4]): 4
- Wild oats plant response rating (wild oat; [5]): 9
- Wild oats plant response rating (wild oat; [6]): 0
- Redroot pigweed plant response rating (pigweed; [1]): 0
- Plant response rating, Redroot pigweed (pigweed; [2]): 2
- Plant response rating, Redroot pigweed (pigweed; [3]): 0
- Redroot pigweed plant response rating (pigweed; [5]): 10
- Redroot pigweed plant response rating (pigweed; [6]): 0
- Plant response rating, S. Flatsedge (0 to 10 scale, 0 is no effect, 10 is complete control) (smallflower flatsedge; [9]): 0
- S. Flatsedge plant response rating (0 to 10 scale, 0 is no effect, 10 is complete control) (smallflower flatsedge; [10]): 0
- S. Flatsedge plant response rating (smallflower flatsedge; [11]): 0
- S. Flatsedge plant response rating (smallflower flatsedge; [12]): 0
- Plant response rating, Barnyardgrass (0 to 10 scale, 0 is no effect, 10 is complete control) (bamyardgrass; [9]): 0
- Barnyardgrass plant response rating (0 to 10 scale, 0 is no effect, 10 is complete control) (bamyardgrass; [10]): 0
- Barnyardgrass plant response rating (bamyardgrass; [11]): 0
- Barnyardgrass plant response rating (bamyardgrass; [12]): 0
- Plant response rating, Rice (0 to 10 scale, 0 is no effect, 10 is complete control) (rice; [9]): 0
- Rice plant response rating (0 to 10 scale, 0 is no effect, 10 is complete control) (rice; [10]): 0
- Rice plant response rating (rice; [11]): 0
- Rice plant response rating (rice; [12]): 0
- Plant response rating, Ducksalad (0 to 10 scale, 0 is no effect, 10 is complete control) (duck salad; [9]): 0
- Ducksalad plant response rating (0 to 10 scale, 0 is no effect, 10 is complete control) (duck salad; [10]): 0
- Ducksalad plant response rating (duck salad; [11]): 0
- Ducksalad plant response rating (duck salad; [12]): 0
- Nutsedge plant response rating (purple nutsedge; [1]): 0
- Plant response rating, Nutsedge (purple nutsedge; [2]): 0
- Plant response rating, Nutsedge (purple nutsedge; [3]): 0
- Nutsedge plant response rating (purple nutsedge; [4]): 0
- Nutsedge plant response rating (purple nutsedge; [5]): 0
- Nutsedge plant response rating (purple nutsedge; [6]): 0
- Morningglory plant response rating (morningglory; [1]): 7
- Plant response rating, Morningglory (morningglory; [2]): 10
- Plant response rating, Morningglory (morningglory; [3]): 0
- Morningglory plant response rating (morningglory; [4]): 0
- Morningglory plant response rating (morningglory; [5]): 1
- Morningglory plant response rating (morningglory; [6]): 2
- Soybean plant response rating (soybean; [1]): 5
- Plant response rating, Soybean (soybean; [2]): 7
- Plant response rating, Soybean (soybean; [3]): 0
- Soybean plant response rating (soybean; [4]): 1
- Soybean plant response rating (soybean; [5]): 3
- Soybean plant response rating (soybean; [6]): 3
